According to BindingDB's records for doi:10.1007/s00210-004-0951-4 (Vernalis Research, 2004):
Values joined by “and” are separate entries in the source; they are usually repeats but may differ in a detail not shown here. Equal entries are not always repeated. Structures can show the parent of a compound that is named as a salt.

Assays:
[1] = target: T1, 5-hydroxytryptamine receptor 2C (Homo sapiens, UniProt P28335)
T1 sequence (P28335 whole entry): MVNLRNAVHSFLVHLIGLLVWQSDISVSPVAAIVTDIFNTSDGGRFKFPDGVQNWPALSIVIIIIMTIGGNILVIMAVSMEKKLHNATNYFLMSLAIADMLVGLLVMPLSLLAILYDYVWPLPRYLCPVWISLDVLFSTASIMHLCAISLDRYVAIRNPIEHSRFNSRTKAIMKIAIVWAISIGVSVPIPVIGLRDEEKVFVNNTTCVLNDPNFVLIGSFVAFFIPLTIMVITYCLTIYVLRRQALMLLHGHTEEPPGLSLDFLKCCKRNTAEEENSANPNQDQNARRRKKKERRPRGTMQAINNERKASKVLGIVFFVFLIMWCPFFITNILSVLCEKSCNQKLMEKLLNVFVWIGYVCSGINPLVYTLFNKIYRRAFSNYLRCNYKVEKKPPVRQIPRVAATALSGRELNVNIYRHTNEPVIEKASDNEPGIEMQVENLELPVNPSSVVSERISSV

[2] = target: 5-hydroxytryptamine receptor 2B (Homo sapiens, UniProt P41595)
Sequence of 5-hydroxytryptamine receptor 2B (P41595 whole entry): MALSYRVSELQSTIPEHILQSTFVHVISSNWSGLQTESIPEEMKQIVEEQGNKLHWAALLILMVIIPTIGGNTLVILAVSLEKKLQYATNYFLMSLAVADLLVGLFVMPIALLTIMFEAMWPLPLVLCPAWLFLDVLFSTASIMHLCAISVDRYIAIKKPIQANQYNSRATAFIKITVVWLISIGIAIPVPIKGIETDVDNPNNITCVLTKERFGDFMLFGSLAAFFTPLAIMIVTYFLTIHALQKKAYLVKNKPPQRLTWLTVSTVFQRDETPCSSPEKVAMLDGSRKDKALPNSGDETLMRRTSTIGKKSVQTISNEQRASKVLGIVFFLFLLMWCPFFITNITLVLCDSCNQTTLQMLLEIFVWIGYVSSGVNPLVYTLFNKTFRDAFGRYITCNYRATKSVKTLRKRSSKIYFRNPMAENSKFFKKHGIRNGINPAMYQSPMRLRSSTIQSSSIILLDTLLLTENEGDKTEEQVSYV

Row | Structure (SMILES) | Ki [1] | Ki [2]
1 | FC(F)(F)c1ccc(N2CCNCC2)nc1Cl [2-Chloro-3-(trifluoromethyl)-6-(1-piperazinyl)pyridine] | 14.8 nM | 91.2 nM
2 | OC(c1ccccc1)C1CCN(CCc2ccccc2)CC1 (stereo not drawn) [MDL-11939] | 263 nM | 3310 nM
3 | CC(N)Cn1ccc2cc(F)c(Cl)cc21 (stereo not drawn) [NSC_3045226] | 6.03 nM | 5.37 nM
4 | Cc1nc2sccn2c(=O)c1CCN1CCC(=C(c2ccc(F)cc2)c2ccc(F)cc2)CC1 | 6.61 nM | 2.14 nM
5 | CC(C)CC(N(C)C)C1(c2ccc(Cl)cc2)CCC1 (stereo not drawn) [CAS_106650-56-0] | > 10000 nM | 
6 | CN1CCN(c2nc3cc(C(F)(F)F)ccc3n3cccc23)CC1 [CAS_109028-10-6] |  | 871 nM
7 | CN1CC[C@@H]2CN3CCc4cccc(c43)[C@@H]2C1 [SDZ SER 082 FUMARATE] | 7.59 nM | 204 nM
8 | Cc1nc(-c2ccc(-c3ccc(C(=O)N4CCc5cc6c(cc54)C4(CCN(C)CC4)CO6)cc3)c(C)c2)no1 [4-[2-methyl-4-(5-methyl-1,2,4-oxadiazol-3-yl)phenyl]phenyl-1'-methylspiro[3,5,6,7-tetrahydro-2H-furo[2,3-f]indole-3,4'-(hexahydropyridine)]-5-ylmethanone] | 2000 nM | 1350 nM
9 | CN1CC(C(=O)NC2(C)OC3(O)C4CCCN4C(=O)C(Cc4ccccc4)N3C2=O)C=C2c3cccc4[nH]cc(c34)CC21 (stereo not drawn) [CAS_113-15-5] | 1.91 nM | 1.29 nM
10 | CN1CC(NS(=O)(=O)N(C)C)CC2c3cccc4c3c(cn4C)CC21 (stereo not drawn) [CAS_64795-35-3] |  | 3.47 nM
11 | COc1ccc2c(c1O[C@H]1CCNC1)CCC2 [ORG-37684] | 7.59 nM | 42.7 nM
12 | C[C@H](N)CN1CCc2ccc(Br)cc21 | 5.62 nM | 30.2 nM
13 | O=C1NCN(c2ccccc2)C12CCN(CCCOc1ccc(F)cc1)CC2 [NSC_77445] | 1550 nM | 
14 | CC[C@@H](CO)NC(=O)[C@@H]1C=C2c3cccc4c3c(cn4C)C[C@H]2N(C)C1 | 4.47 nM | 
15 | Cn1cc(CCN)c2cc(O)ccc21 [5-HT,omega-N-Me] | 2.69 nM | 6.92 nM
16 | NCCc1c[nH]c2ccccc12 [1H-indole-3-ethanamine] | 2340 nM | 102 nM
17 | CSc1cc2c(cc1C(F)(F)F)N(C(=O)Nc1cccnc1)CC2 | 2.19 nM | 2.45 nM
18 | C[C@H](N)Cc1cccc(C(F)(F)F)c1 [Norfenfluramine (+)] | 51.3 nM | 100 nM

Row | Structure (SMILES) | Ki [1] | Ki [2]
19 | CC(C)CC(N)C1(c2ccc(Cl)cc2)CCC1 (stereo not drawn) [NSC_134771] | > 10000 nM | > 10000 nM
20 | CCC(CO)NC(=O)C1C=C2c3cccc4[nH]cc(c34)CC2N(C)C1 (stereo not drawn) [NSC_8226] | 4.57 nM | 0.46 nM
21 | COc1cc(CC(C)N)c(OC)cc1I (stereo not drawn) [[125I]2,5-dimethoxy-4-iodoamphetamine] | 8.32 nM and 5.37 nM | 28.2 nM and 53.7 nM
22 | CSc1ccc2c(c1)C(N1CCN(C)CC1)Cc1ccccc1S2 (stereo not drawn) [methanesulfonic acid;1-methyl-4-(3-methylsulfanyl-5,6-dihydrobenzo[b][1]benzothiepin-5-yl)piperazine] | 4.47 nM | 
23 | c1ccc2nc(N3CCNCC3)ccc2c1 [2-Piperazin-1-yl-quinoline (Quipazine)] | 53.7 nM | 85.1 nM
24 | Cn1ccc2cc3c(cc21)CCN3C(=O)Nc1cccnc1 |  | 22.4 nM
25 | FC(F)(F)c1cccc(N2CCNCC2)c1 [TFMPP] |  | 58.9 nM
26 | O=C(CCCN1CCC2(CC1)C(=O)NCN2c1ccccc1)c1ccc(F)cc1 [8-[4-(4-fluorophenyl)-4-oxidanylidene-butyl]-1-phenyl-1,3,8-triazaspiro[4.5]decan-4-one] | 603 nM | 
27 | Cc1cc(NC(=O)Nc2ccc3c(ccn3C)c2)sn1 [CAS_3277600] |  | 126 nM
28 | Cc1cc2c(cc1Cl)N(C(=O)Nc1ccc(Oc3cccnc3C)nc1)CC2 [CAS_181632-25-7] | 7.08 nM | 145 nM
29 | NCCc1c[nH]c2ccc(C(N)=O)cc12 [[3H]-5-carboxamidotryptamine] |  | 186 nM
30 | COc1cc(OC)c(C(=O)CCCCN2CCC3(CC2)NC(=O)NC3=O)cc1NS(=O)(=O)c1ccc(C(F)(F)F)cc1 [N-[5-[5-(2,4-Dioxo-1,3,8-triazaspiro[4.5]decan-8-yl)-1-oxopentyl]-2,4-dimethoxyphenyl]-4-(trifluoromethyl)benzenesulfonamide] | 5.01 nM | 2880 nM
31 | Clc1cncc(N2CCNCC2)n1 [L-630,571] | 97.7 nM | 617 nM
32 | CC(N)Cc1c[nH]c2ccc(OCc3cccs3)cc12 (stereo not drawn) [NSC_5311036] | 77.6 nM | 
33 | CC(C)c1cc(-c2ccc(F)c3ccccc23)nc(N)n1 [RS-127445] | 468 nM | 1.07 nM
34 | CCCN1CCCC2Cc3[nH]ncc3CC21 (stereo not drawn) [NSC_55397] | 3310 nM | 302 nM
35 | COc1cc(CC(C)N)c(OC)cc1Br (stereo not drawn) [2-(4-Bromo-2,5-dimethoxy-phenyl)-1-methyl-ethylamine((-)-DOB)] |  | 43.6 nM
36 | CCCN(CCC)C1CCc2cccc(O)c2C1 (stereo not drawn) |  | 4070 nM
